For orientation: inhibition means the percentage by which the read-out fell short of the control.

Experiment [1] deals with T1, Rat Striatal Nicotinic Receptors ([^3H]NIC binding sites; α4β2) (Rattus norvegicus, UniProt P09483+P12390).
T1 construct: Whole brain, excluding cortex and cerebellum, was homogenized in 20 vol of ice-cold buffer; from tissue; host or cells: rat brain membranes (whole brain excluding cortex and cerebellum)
In words: Inhibition of [^3H]NIC binding. As to conditions: 1 h; 100 nM analog; 3 nM [^3H]NIC; nonspecific 10 μM cytisine; rat brain membranes. How it is done:
(§1) Homogenate was centrifuged (25,000 g, 15 min, 4° C). Pellets were resuspended in 20 vol buffer and incubated at 37° C., for 10 min, cooled to 4° C. and centrifuged (25,000 g, 15 min, 4° C.). Pellets were resuspended and centrifuged using the same conditions. […] Upon use, final pellets were resuspended in 20 vol assay buffer. Samples (250 μl) contained 100-140 μg of membrane protein, 3 nM [^3H]-S-nicotine or 3 nM [^3H]-methyllycaconitine (MLA), and bis-quaternary ammonium analog (100 nM) in assay buffer containing 50 mM Tris. Control was in the absence of analog. In [^3H]-S-nicotine and [^3H]-methyllycaconitine binding assays, nonspecific binding was determined in the presence of 10 μM cytisine and 10 μM S-nicotine, respectively. Incubations proceeded for 60 min at room temperature using 96-well plates and were terminated by harvesting on Unifilter-96 GF/B filter plates presoaked in 0.5% polyethylenimine, using a Packard FilterMate harvester. After washing 5 times with 350 μl ice-cold assay buffer, filter plates were dried (60 min, 4° C.), bottom-sealed, and filled with Packard's MicroScint 20 cocktail (40 μl/well). After 60 min, filter plates were top-sealed, and radioactivity determined using a Packard TopCount. Protein concentrations were determined using the Bradford dye-binding procedure bovine serum albumin as the standard.
Specific binding in the [^3H]NIC binding assay is calculated as the difference between the total binding of 3 nM [^3H]NIC and nonspecific binding in the presence of 10 μM cold cytisine. […] Analog-induced inhibition of S-nicotine-evoked [^3H]DA release is calculated as a percent of that in the absence of the bis-quaternary ammonium analog.

For experiment [2], the target named is T2, Rat Striatal Nicotinic Receptors ([^3H]MLA binding sites; α7) (Rattus norvegicus, UniProt Q05941).
T2 construct: Whole brain, excluding cortex and cerebellum, was homogenized in 20 vol of ice-cold buffer; from tissue; host or cells: rat brain membranes (whole brain excluding cortex and cerebellum)
T2 sequence (Q05941 23-502): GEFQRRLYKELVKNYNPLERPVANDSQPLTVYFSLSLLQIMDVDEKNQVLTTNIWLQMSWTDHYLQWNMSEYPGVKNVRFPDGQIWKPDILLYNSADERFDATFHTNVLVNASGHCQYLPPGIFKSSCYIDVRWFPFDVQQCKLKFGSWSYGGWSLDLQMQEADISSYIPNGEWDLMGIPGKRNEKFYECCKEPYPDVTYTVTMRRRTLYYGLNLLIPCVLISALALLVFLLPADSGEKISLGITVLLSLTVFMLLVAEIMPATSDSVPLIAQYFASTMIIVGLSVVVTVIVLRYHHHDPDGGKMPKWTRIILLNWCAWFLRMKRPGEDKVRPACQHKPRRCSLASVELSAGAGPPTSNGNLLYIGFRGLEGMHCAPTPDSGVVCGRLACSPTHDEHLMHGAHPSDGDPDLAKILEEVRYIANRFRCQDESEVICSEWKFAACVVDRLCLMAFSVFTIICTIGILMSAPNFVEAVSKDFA
Description: Inhibition of [^3H]MLA (methyllycaconitine) binding. As to conditions: 100 nM analog; [^3H]MLA; nonspecific S-nicotine; rat brain membranes; read-out: [^3H]MLA binding, % inhibition. On the procedure:
as §1, with “standard. […]” for “standard.”

T1 sequence (P09483 31-630): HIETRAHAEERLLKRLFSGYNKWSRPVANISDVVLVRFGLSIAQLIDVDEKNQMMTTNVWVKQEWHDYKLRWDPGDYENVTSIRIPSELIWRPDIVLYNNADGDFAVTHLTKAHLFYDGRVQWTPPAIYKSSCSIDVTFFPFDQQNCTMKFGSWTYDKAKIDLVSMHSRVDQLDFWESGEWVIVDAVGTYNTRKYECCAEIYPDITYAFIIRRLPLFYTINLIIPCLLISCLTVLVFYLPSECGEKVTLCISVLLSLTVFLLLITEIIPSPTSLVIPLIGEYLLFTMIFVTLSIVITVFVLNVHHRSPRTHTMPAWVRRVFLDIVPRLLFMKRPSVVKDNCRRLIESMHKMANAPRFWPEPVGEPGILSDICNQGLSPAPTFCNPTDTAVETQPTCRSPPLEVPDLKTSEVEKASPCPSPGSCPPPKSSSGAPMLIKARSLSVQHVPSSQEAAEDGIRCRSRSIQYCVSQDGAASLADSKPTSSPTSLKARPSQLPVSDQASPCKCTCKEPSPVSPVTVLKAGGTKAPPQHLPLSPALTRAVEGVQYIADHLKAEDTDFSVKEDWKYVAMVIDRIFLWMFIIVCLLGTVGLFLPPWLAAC
T1 sequence (P12390 25-500): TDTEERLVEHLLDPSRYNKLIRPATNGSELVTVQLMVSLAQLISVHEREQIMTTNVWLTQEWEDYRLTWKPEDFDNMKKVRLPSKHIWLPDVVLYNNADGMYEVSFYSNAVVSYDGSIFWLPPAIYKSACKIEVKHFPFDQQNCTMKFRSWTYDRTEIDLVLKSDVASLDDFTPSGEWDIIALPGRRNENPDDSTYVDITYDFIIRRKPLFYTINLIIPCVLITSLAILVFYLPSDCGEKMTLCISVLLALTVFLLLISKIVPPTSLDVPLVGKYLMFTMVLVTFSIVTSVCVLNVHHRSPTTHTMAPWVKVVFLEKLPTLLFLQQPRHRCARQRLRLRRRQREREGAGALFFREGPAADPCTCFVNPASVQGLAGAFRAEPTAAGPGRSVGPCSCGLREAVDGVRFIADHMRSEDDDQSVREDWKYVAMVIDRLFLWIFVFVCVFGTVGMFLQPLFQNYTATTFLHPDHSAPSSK

As for `Cc1cc(C)c[n+](CCOCCOCCOCC[n+]2cc(C)cc(C)c2)c1` [Example 90, N,N′-{2,2′-[oxybis-(2,1-ethandiyloxy)]bis-ethyl}-bis-(3,5-dimethylpyridinium)dichloride], the inhibition at 0.1 µM in experiment [1] was determined as 10%; in experiment [2], 5%.
Turning to `Cc1cc[n+](CCOCCOCCOCC[n+]2ccc(C)cc2C)c(C)c1` [Example 88, N,N′-{2,2′-[oxybis-(2,1-ethandiyloxy)]bis-ethyl}-bis-(2,4-dimethylpyridinium)dichloride], the values for the inhibition at 0.1 µM in experiment [1] and in experiment [2] were 0% and 2.9%, respectively.
Regarding `Cc1cc[n+](CC#Cc2ccc(-c3ccc(C#CC[n+]4ccc(C)c(C)c4)cc3)cc2)cc1C` [Example 104, N,N′-[(1,1′-biphenyl)-4,4′-di-(1-propyn-3-yl)]-bis-(3,4-dimethylpyridinium)dibromide], the results for the inhibition at 0.1 µM in experiment [1] and in experiment [2] were 19% and 16%, respectively.
In the same order, the values of `Cc1cc[n+](CCOCCOCCOCC[n+]2ccc(C)c(C)c2)cc1C` [Example 89, N,N′-{2,2′-[oxybis-(2,1-ethandiyloxy)]bis-ethyl}-bis-(3,4-dimethylpyridinium)dichloride] are 13% and 14%.
In the same order, the values of `Cc1cc(C)c[n+](CCCc2ccc(-c3ccc(CCC[n+]4cc(C)cc(C)c4)cc3)cc2)c1` [Example 71, N,N′-[(1,1′-biphenyl)-4,4′-di-(3-propanyl)]-bis-(3,5-dimethylpyridinium)dibromide] are 1.6% and 3.6%.
In the same order, the values of `Cc1ccc[n+](CC#Cc2ccc(-c3ccc(C#CC[n+]4cccc(C)c4)cc3)cc2)c1` [Example 102, N,N′-[(1,1′-biphenyl)-4,4′-di-(1-propyn-3-yl)]-bis-(3-methylpyridinium)dibromide] are 9.4% and 12%.
In the case of `c1cc(-c2ccc(CCC[n+]3ccc4c(c3)CCCC4)cc2)ccc1CCC[n+]1ccc2c(c1)CCCC2` [Example 76, N,N′-[(1,1′-biphenyl)-4,4′-di-(3-propanyl)]-bis-[5,6,7,8-tetrahydroisoquinolinium]dibromide], the inhibition at 0.1 µM worked out at 0% in experiment [1] and 5.1% in experiment [2].
In the same order, the values of `Cc1cc[n+](CCCc2ccc(-c3ccc(CCC[n+]4ccc(C)cc4)cc3)cc2)cc1` [Example 77, N,N′-[(1,1′-biphenyl)-4,4′-di-(3-propanyl)]-bis-(4-methylpyridinium)dibromide] are 0% and 0%.
Taken in the same sequence, the figures for `CN1CCC[C@H]1c1ccc[n+](CCOCCOCCOCC[n+]2cccc([C@@H]3CCCN3C)c2)c1` [Example 80, N,N′-{2,2′-[oxybis-(2,1-ethandiyloxy)]bis-ethyl}-bis-[3-(2′-S-1-methyl-pyrrolidin-2-yl)-pyridinium]dichloride] were 7.2% and 13%.
In the same order, the values of `Cc1cc[n+](CCCc2ccc(-c3ccc(CCC[n+]4ccc(C)c(C)c4)cc3)cc2)cc1C` [Example 72, N,N′-[(1,1′-biphenyl)-4,4′-di-(3-propanyl)]-bis-(3,4-dimethylpyridinium)dibromide] are 0% and 5.5%.
In the case of `Cc1cccc[n+]1CCCc1ccc(-c2ccc(CCC[n+]3ccccc3C)cc2)cc1` [Example 79, N,N′-[(1,1′-biphenyl)-4,4′-di-(3-propanyl)]-bis-(2-methylpyridinium)dibromide], the inhibition at 0.1 µM in experiment [1] and in experiment [2] was 0% in each case.
As for `CCCCc1ccc[n+](CCCC#Cc2cccc(C#CCCC[n+]3cccc(CCCC)c3)c2)c1` [Example 57, 1,3-bis-[5-(3-n-butyl-pyridinium)-pent-1-ynyl]-benzene dibromide], the figures for the inhibition at 0.1 µM in experiment [1] and in experiment [2] were 3.5% and 8.7%, respectively.
As to `OCCCc1ccc[n+](CCCc2ccc(-c3ccc(CCC[n+]4cccc(CCCO)c4)cc3)cc2)c1` [Example 74, N,N′-[(1,1′-biphenyl)-4,4′-di-(3-propanyl)]-bis-[3-(3-hydroxy-propyl)-pyridinium]dibromide], the inhibition at 0.1 µM was 2% in experiment [1] and 5.8% in experiment [2].
With `Cc1cccc[n+]1CCOCCOCCOCC[n+]1ccccc1C` [Example 81, N,N′-{2,2′-[oxybis-(2,1-ethandiyloxy)]bis-ethyl}-bis(2-methylpyridinium)dichloride], the inhibition at 0.1 µM turned out to be 8.5% in experiment [1] and 17% in experiment [2].
In the same order, the values of `Cc1cc[n+](CCCC/C=C\C=C/CCCC[n+]2ccc(C)cc2C)c(C)c1` [Example 7, cis-cis-N,N′-(dodeca-5,7-diene-1,12-diyl)-bis-(2,4-dimethyl-pyridinium)dibromide] are 1% and 6%.
Taken in the same sequence, the figures for `Cc1cc[n+](CCCC/C=C\C=C/CCCC[n+]2ccc(C)c(C)c2)cc1C` [Example 8, cis-cis-N,N′-(dodeca-5,7-diene-1,12-diyl)-bis-(3,4-dimethyl-pyridinium)dibromide] were 0% and 0%.
In the same order, the values of `OCc1ccc[n+](CCOCCOCCOCC[n+]2cccc(CO)c2)c1` [Example 87, N,N′-{2,2′-[oxybis-(2,1-ethandiyloxy)]bis-ethyl}-bis-(3-hydroxymethylpyridinium)dichloride] are 8.2% and 11%.
Consider `CCc1ccc[n+](CCCCc2ccc(CCCC[n+]3cccc(CC)c3)cc2)c1` [Example 14, N,N′-[1,4-phenylenedi-(4-butanyl)]-bis-(3-ethylpyridinium)dibromide], for which the inhibition at 0.1 µM came to 2% in experiment [1] and 4% in experiment [2].
In the same order, the values of `Cc1cc(C)c[n+](CCCCc2ccc(CCCC[n+]3cc(C)cc(C)c3)cc2)c1` [Example 20, N,N′-[1,4-phenylenedi-(4-butanyl)]-bis-(3,5-dimethylpyridinium)dibromide] are 1% and 0%.
As to `OCCCc1ccc[n+](CCOCCOCCOCC[n+]2cccc(CCCO)c2)c1` [Example 86, N,N′-{2,2′-[oxybis-(2,1-ethandiyloxy)]bis-ethyl}-bis-[3-(3-hydroxypropyl)-pyridinium]dichloride], the inhibition at 0.1 µM was 8.2% in experiment [1] and 8.5% in experiment [2].
Taken in the same sequence, the figures for `CCCCc1ccc[n+](CCCCCc2ccccc2CCCCC[n+]2cccc(CCCC)c2)c1` [Example 43, 1,2-bis-[5-(3-n-butyl-pyridinium)-pentyl]-benzene dibromide] were 0.8% and 5.5%.
In the same order, the values of `c1cc2c([n+](CCCc3ccc(-c4ccc(CCC[n+]5cccc6c5CCCC6)cc4)cc3)c1)CCCC2` [Example 75, N,N′-[(1,1′-biphenyl)-4,4′-di-(3-propanyl)]-bis-[5,6,7,8-tetrahydroquinolinium]dibromide] are 0.4% and 10%.
Taken in the same sequence, the figures for `c1c[n+](CCOCCOCCOCC[n+]2ccc3c(c2)CCCC3)cc2c1CCCC2` [Example 85, N,N′-{2,2′-[oxybis-(2,1-ethandiyloxy)]bis-ethyl}-bis(5,6,7,8-tetrahydroisoquinolinium)dichloride] were 6% and 16%.
Turning to `Cc1cc[n+](CCCCc2ccc(CCCC[n+]3ccc(C)c(C)c3)cc2)cc1C` [Example 19, N,N′-[1,4-phenylenedi-(4-butanyl)]-bis-(3,4-dimethylpyridinium)dibromide], the inhibition at 0.1 µM in experiment [1] and in experiment [2] was 0% in each case.
Turning to `Cc1cc[n+](CCCCc2ccc(CCCC[n+]3ccc(C)cc3C)cc2)c(C)c1` [Example 18, N,N′-[1,4-phenylenedi-(4-butanyl)]-bis-(2,4-dimethylpyridinium)dibromide], the inhibition at 0.1 µM in experiment [1] and in experiment [2] was 0% in each case.

The record behind these values is US8178678B2, “Bis-quaternary ammonium salts and methods for modulating neuronal nicotinic acetylcholine receptors” (University of Kentucky Research Foundation, priority 2006, dated 2012).
